Measurements as given in patent US20240246946A1, “MODULATORS OF TREX1” (Constellation Pharmaceuticals, Inc., priority 2021, published 2024).

Key:
[1] = target: T1, human TREX2 (residues M44-A279) (Homo sapiens, UniProt Q9BQ50); experiment: hTREX2 Biochemical Assay (fluorescence, dsDNA substrate degradation); details: biochemical selectivity for hTREX1 vs hTREX2
T1 construct: human TREX2 (residues M44-A279, expressed in E. coli); made in house; host or cells: E. coli
T1 sequence (Q9BQ50 44-279 isoform Q9BQ50-1): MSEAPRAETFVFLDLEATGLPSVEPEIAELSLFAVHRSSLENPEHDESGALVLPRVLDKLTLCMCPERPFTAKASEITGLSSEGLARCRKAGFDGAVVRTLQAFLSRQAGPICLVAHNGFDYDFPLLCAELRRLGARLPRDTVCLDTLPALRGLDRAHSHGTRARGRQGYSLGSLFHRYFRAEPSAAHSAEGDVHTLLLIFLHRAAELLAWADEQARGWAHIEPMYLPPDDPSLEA
Outline: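 Fluorogenic dsDNA degradation read at 615 nm (570 nm excitation) after EDTA quench. Final 60 nM substrate, 50 pM His-Tev-tagged enzyme, 5 mM MgCl2, pH 7.4, 1.0% DMSO; 4 h compound–enzyme preincubation then 18 h reaction, both 25 °C; 10-point titration.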

full length human TREX1 = target: T2, full length human TREX1 (Homo sapiens, UniProt Q9NSU2); experiment: hTREX1 Biochemical Assay (fluorescence, dsDNA substrate degradation); details: biochemical, read-out: hTREX1 IC50
T2 construct: N-terminally His-Tev tagged full length human TREX1; made in house; host or cells: E. coli
T2 sequence (Q9NSU2 1-314): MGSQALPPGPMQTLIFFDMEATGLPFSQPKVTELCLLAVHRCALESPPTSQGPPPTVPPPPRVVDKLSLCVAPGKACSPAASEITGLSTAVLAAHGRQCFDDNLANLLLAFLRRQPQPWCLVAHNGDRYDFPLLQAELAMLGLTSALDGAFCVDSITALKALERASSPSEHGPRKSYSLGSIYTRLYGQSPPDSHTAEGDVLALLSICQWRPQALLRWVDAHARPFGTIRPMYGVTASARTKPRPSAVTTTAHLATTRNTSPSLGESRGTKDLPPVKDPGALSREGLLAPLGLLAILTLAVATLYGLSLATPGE
Outline: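 Fluorescence rises as enzyme degrades a quenched TEX615-labelled dsDNA substrate (60 nM) in 50 mM Tris, 150 mM NaCl, 5 mM MgCl2, pH 7.4. Full-length His-Tev-tagged human TREX1, 4 pM, sits with compound 4 hours at 25° C before substrate; reaction 18 hours, stopped with EDTA.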

full length mouse TREX1 = target: T3, full length mouse TREX1 (Mus musculus, UniProt Q91XB0); experiment: mTREX1 Biochemical Assay (fluorescence, dsDNA substrate degradation); details: biochemical, read-out: mTREX1 IC50
T3 construct: N-terminally His-Tev tagged full length mouse TREX1; made in house; host or cells: E. coli
T3 sequence (Q91XB0 1-314): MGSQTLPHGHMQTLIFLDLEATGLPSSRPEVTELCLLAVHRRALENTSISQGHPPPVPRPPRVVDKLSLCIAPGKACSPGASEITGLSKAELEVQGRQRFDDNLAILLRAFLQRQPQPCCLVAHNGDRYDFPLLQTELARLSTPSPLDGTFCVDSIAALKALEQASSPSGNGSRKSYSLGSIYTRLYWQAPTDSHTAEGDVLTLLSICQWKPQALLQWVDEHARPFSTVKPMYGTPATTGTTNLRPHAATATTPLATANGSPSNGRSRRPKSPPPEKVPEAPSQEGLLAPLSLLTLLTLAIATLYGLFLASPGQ
Outline: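 Reaction run 18 h at 25° C. with 60 nM TEX615/quencher-labelled dsDNA and 6 pM mouse TREX1 in Tris buffer (pH 7.4, 5 mM MgCl2, 1.0% DMSO), enzyme having sat 4 h with compound across 10 concentrations. EDTA quench; substrate degradation measured as fluorescence increase.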

| SMILES | hTREX1 vs hTREX2 selectivity [1] | IC50 (full length human TREX1) | IC50 (full length mouse TREX1) |
| --- | --- | --- | --- |
| CCn1c(C(C)C(c2cnn(C)c2)c2ccccc2C#N)nc(C(=O)Nc2cnoc2)c(O)c1=O (single isomer, unassigned) [Example 149 D2E2] | B (B = 25 to 50-fold selective for hTREX1) | > 10 nM | > 10 nM |
| CC(c1nc(C(=O)Nc2cnoc2)c(O)c(=O)n1C)C(c1ccccc1Cl)c1nncn1C (single isomer, unassigned) [Example 152 D2E2] | A (A = <25 fold selective for hTREX1) | > 10 nM | > 10 nM |
| CC(c1nc(C(=O)Nc2cnoc2)c(O)c(=O)n1C)C(c1cnn(C)c1)c1ccc(Cl)cc1C#N (single isomer, unassigned) [Example 27 D1E2] | C (C = >50 fold selective for hTREX1) | > 10 nM | > 10 nM |
| CC(c1nc(C(=O)Nc2cnoc2)c(O)c(=O)n1C)C(c1cnn(CC(F)(F)F)c1)c1ccccc1C#N (single isomer, unassigned) [Example 22 D2E1] | B (B = 25 to 50-fold selective for hTREX1) | > 10 nM | > 10 nM |
| CC(c1nc(C(=O)Nc2cnoc2)c(O)c(=O)n1C)C(c1cnn(C)c1)c1cccnc1C#N (single isomer, unassigned) [Example 7 D2E2] | B (B = 25 to 50-fold selective for hTREX1) | > 10 nM | > 10 nM |
| Cc1ncc(C(c2ccccc2Cl)C(C)c2nc(C(=O)Nc3cnoc3)c(O)c(=O)n2C)cn1 (single isomer, unassigned) [Example 44 D2E2] | A (A = <25 fold selective for hTREX1) | > 10 nM | > 10 nM |
| CC(c1nc(C(=O)Nc2cnoc2)c(O)c(=O)n1C)C(c1ccccc1Cl)n1nccc1C#N (single isomer, unassigned) [Example 140 D1E2] | A (A = <25 fold selective for hTREX1) | > 10 nM | > 10 nM |
| Cc1nn(C)c(C)c1C(c1cc(F)ccc1C#N)C(C)c1nc(C(=O)Nc2cnoc2)c(O)c(=O)n1C (single isomer, unassigned) [Example 109 D1E2] | A (A = <25 fold selective for hTREX1) | > 10 nM | > 10 nM |
| Cc1ccn(C(c2cc(F)ccc2Cl)C(C)c2nc(C(=O)Nc3cnoc3)c(O)c(=O)n2C)n1 (single isomer, unassigned) [Example 146 D1E2] | A (A = <25 fold selective for hTREX1) | > 10 nM | > 10 nM |
| CCn1c(C(C)C(c2cnn(C)c2)c2ccccc2C#N)nc(C(=O)Nc2cnoc2)c(O)c1=O (single isomer, unassigned) [Example 149 D1E1] | A (A = <25 fold selective for hTREX1) | > 10 nM | > 10 nM |
| Cc1nnc(C(c2ccccc2Cl)C(C)c2nc(C(=O)Nc3cnoc3)c(O)c(=O)n2C)o1 (single isomer, unassigned) [Example 156 D1E2] | A (A = <25 fold selective for hTREX1) | > 10 nM | > 10 nM |
| Cc1cnc(C)c(C(c2ccccc2C#N)C(C)c2nc(C(=O)Nc3cnoc3)c(O)c(=O)n2C)n1 (single isomer, unassigned) [Example 82 D1E2] | B (B = 25 to 50-fold selective for hTREX1) | > 10 nM | > 10 nM |
| CC(c1nc(C(=O)Nc2cnoc2)c(O)c(=O)n1C)C(c1ccccc1)c1cccnc1C#N (single isomer, unassigned) [Example 155 D2E2] | A (A = <25 fold selective for hTREX1) | > 10 nM | > 10 nM |
| Cc1cc(C(c2cc(F)ccc2C#N)C(C)c2nc(C(=O)Nc3cnoc3)c(O)c(=O)n2C)n(C)n1 (single isomer, unassigned) [Example 111 D2E2] | A (A = <25 fold selective for hTREX1) | > 10 nM | > 10 nM |
| COCCn1ncc(C(c2cc(F)ccc2Cl)C(C)c2nc(C(=O)Nc3cnoc3)c(O)c(=O)n2C)c1C (single isomer, unassigned) [Example 108 D2E2] | A (A = <25 fold selective for hTREX1) | > 10 nM | > 10 nM |
| CC(c1nc(C(=O)Nc2cnoc2)c(O)c(=O)n1C)C(c1cnn(C(C)C)c1)c1ccccc1C#N (single isomer, unassigned) [Example 105 D2E2] | A (A = <25 fold selective for hTREX1) | > 10 nM | > 10 nM |
| CC(c1nc(C(=O)Nc2cnoc2)c(O)c(=O)n1C)C(c1ccccc1Cl)n1cc(C(F)(F)F)cn1 (single isomer, unassigned) [Example 139 D1E2] | A (A = <25 fold selective for hTREX1) | > 10 nM | > 10 nM |
| Cc1cc(C(c2cc(F)ccc2C#N)C(C)c2nc(C(=O)Nc3cnoc3)c(O)c(=O)n2C)nn1C (single isomer, unassigned) [Example 112 D1E2] | A (A = <25 fold selective for hTREX1) | > 10 nM | > 10 nM |

Next, values leading:

| hTREX1 vs hTREX2 selectivity [1] | IC50 (full length human TREX1) | IC50 (full length mouse TREX1) | SMILES |
| --- | --- | --- | --- |
| A (A = <25 fold selective for hTREX1) | > 10 nM | > 10 nM | CC(c1nc(C(=O)Nc2cnoc2)c(O)c(=O)n1C)C(c1cc(F)ccc1Cl)c1cn(C)nc1C#N (single isomer, unassigned) [Example 89 D1E1] |
| C (C = >50 fold selective for hTREX1) | > 10 nM | > 10 nM | CC(c1nc(C(=O)Nc2cnoc2)c(O)c(=O)n1C)C(c1cnn(C)c1)c1ccc(O)cc1C#N (single isomer, unassigned) [Example 80 D1E2] |
| A (A = <25 fold selective for hTREX1) | > 10 nM | > 10 nM | CC(c1nc(C(=O)Nc2cnoc2)c(O)c(=O)n1C)C(c1ccccc1C#N)c1ccnn1C (single isomer, unassigned) [Example 1 D1E2] |
| C (C = >50 fold selective for hTREX1) | < 1 nM | 1 to 10 nM | COCCn1cc(C(c2cc(F)c(F)cc2Cl)C(C)c2nc(C(=O)Nc3cnoc3)c(O)c(=O)n2C)cn1 (single isomer, unassigned) [Example 73 D1E1] |
| A (A = <25 fold selective for hTREX1) | > 10 nM | > 10 nM | CC(=O)N(C)c1nn(C)cc1C(c1ccccc1C#N)C(C)c1nc(C(=O)Nc2cnoc2)c(O)c(=O)n1C (single isomer, unassigned) [Example 153 D1E2] |
| A (A = <25 fold selective for hTREX1) | > 10 nM | > 10 nM | Cc1cnc(C(c2cc(F)ccc2C#N)C(C)c2nc(C(=O)Nc3cnoc3)c(O)c(=O)n2C)cn1 (single isomer, unassigned) [Example 115 D1E1] |
| C (C = >50 fold selective for hTREX1) | 1 to 10 nM | > 10 nM | CCn1cc(C(c2ccc(F)cc2C#N)C(C)c2nc(C(=O)Nc3cnoc3)c(O)c(=O)n2C)c(C)n1 (single isomer, unassigned) [Example 55 D2E2] |
| A (A = <25 fold selective for hTREX1) | 1 to 10 nM | > 10 nM | CC(c1nc(C(=O)Nc2cnoc2)c(O)c(=O)n1C)C(c1cnn(CC2COC2)c1)c1ccccc1Cl (single isomer, unassigned) [Example 88 D1E2] |
